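48-hour exposure; five concentrations; linearly interpolated endpoints. TGI: total growth inhibition.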

This is an account of results in PubChem BioAssay (NCI).

Test systems include PC-3 prostate; SNB-75 CNS; SF-295 CNS; SF-268 CNS; NCI-H23 lung; HL-60(TB) leukemia; MALME-3M melanoma; U251 CNS; OVCAR-3 ovarian; SN12C renal.
Holding throughout (experiment): growth of human tumour cells (NCI), 48 h

With `CCc1n[nH]c(=O)n1-c1ccncc1`, the TGI in the assay on PC-3 prostate, with SNB-75 CNS, in the assay with SF-295 CNS, in the assay on SF-268 CNS, in the assay on NCI-H23 lung and in the assay on HL-60(TB) leukemia was over 100 µM throughout. For the same compound, the TGI in the assay on MALME-3M melanoma, with U251 CNS, in the assay with OVCAR-3 ovarian and in the assay with SN12C renal was over 100 µM throughout.

On to `CNC(=O)N(C)C(=O)c1ccccc1C(=O)N(C)C(=O)NC`, for which the TGI in the assay with PC-3 prostate, in the assay with SNB-75 CNS, in the assay with SF-295 CNS, in the assay on SF-268 CNS, with NCI-H23 lung and with HL-60(TB) leukemia was over 10 µM in each case. Further, the TGI in the assay on MALME-3M melanoma, in the assay with U251 CNS, in the assay on OVCAR-3 ovarian and with SN12C renal was over 10 µM in each case.

For `O=P1(C(O)c2ccccc2)N(Cc2ccccc2)[C@@H]2CCCC[C@H]2N1Cc1ccccc1` (stereo not given in full), the TGI in the assay on PC-3 prostate was 89.1 µM; with SNB-75 CNS it was 55.1 µM; in the assay on SF-295 CNS, 56.6 µM; with SF-268 CNS, 97.1 µM; with NCI-H23 lung it was over 100 µM; with HL-60(TB) leukemia, 47.2 µM. In addition, the TGI in the assay on MALME-3M melanoma was 73.1 µM; in the assay on U251 CNS, over 100 µM; in the assay on OVCAR-3 ovarian, 91.3 µM; in the assay with SN12C renal, 43 µM.

With `CCc1nc2cc(F)ccc2[nH]c1=O`, the TGI in the assay on PC-3 prostate, in the assay on SNB-75 CNS, in the assay on SF-295 CNS, in the assay with SF-268 CNS, in the assay with NCI-H23 lung and in the assay on HL-60(TB) leukemia was over 100 µM throughout. For the same compound, the TGI with MALME-3M melanoma, in the assay on U251 CNS, in the assay with OVCAR-3 ovarian and in the assay with SN12C renal was over 100 µM in each case.

On to `CC(=O)Oc1cc(OC(C)=O)c2c(c1C)CC[C@@H]1[C@@H]2CC[C@]2(C)[C@@H](OC(C)=O)CC[C@@H]12`, for which the TGI with PC-3 prostate came out at 29 µM; in the assay on SNB-75 CNS, 44 µM; in the assay on SF-295 CNS it was 38 µM; with SF-268 CNS, 39.3 µM; with NCI-H23 lung, 38.8 µM; in the assay with HL-60(TB) leukemia, 54.6 µM. Further, the TGI in the assay on MALME-3M melanoma amounted to 29.2 µM; in the assay with U251 CNS it was 31.9 µM; with OVCAR-3 ovarian, 31.7 µM; with SN12C renal it was 33.7 µM.
